Measured values published in PubChem BioAssay (NCI).
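Protocol summary: plate cells (96-well), add compound at 5 concentrations, incubate 48 h, interpolate endpoints linearly. At the GI50, growth is halved. TGI: total growth inhibition.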

Key:
Assay in all cases: NCI anticancer screen, dose series, 48 h
[1] = test system: SR leukemia
[2] = test system: U251 CNS
[3] = test system: CCRF-CEM leukemia
[4] = test system: NCI-H522 lung
[5] = test system: 786-0 renal
[6] = test system: KM12 colon
[7] = test system: SW-620 colon
[8] = test system: RXF 393 renal
[9] = test system: UACC-257 melanoma
[10] = test system: SF-295 CNS

| Structure (SMILES) | GI50 [1] [µM] | TGI [1] [µM] | GI50 [2] [µM] | TGI [2] [µM] | GI50 [3] [µM] | TGI [3] [µM] | GI50 [4] [µM] | TGI [4] [µM] | GI50 [5] [µM] | TGI [5] [µM] | GI50 [6] [µM] | TGI [6] [µM] | GI50 [7] [µM] | TGI [7] [µM] | GI50 [8] [µM] | TGI [8] [µM] | GI50 [9] [µM] | TGI [9] [µM] | GI50 [10] [µM] | TGI [10] [µM] |
| --- | --- | --- | --- | --- | --- | --- | --- | --- | --- | --- | --- | --- | --- | --- | --- | --- | --- | --- | --- | --- |
| COc1cc2c(c(OC)c1)C1c3ccccc3NC(=O)N1CC2 (stereo not given) | 2.77 | > 100 | 4.38 | > 100 | 2.67 | > 100 | 2.97 | 11.8 | 4.63 | > 100 | 4.95 | > 100 | 4.68 | > 100 | 2.38 | 5.6 | 51 | > 100 | 2.63 | 9.14 |
| CCCC(C)c1cc(Cc2cc(Cl)cc(Cl)c2O)c(O)c(Cc2cc(Cl)cc(Cl)c2O)c1 (stereo not given) | 0.249 | 11 | 0.839 | 11.1 | 0.432 | 3.74 | 0.4 | 6.6 | 1.64 | 6.78 | 2.19 | 11.4 | 1.61 | 12.7 | 1.34 | 8.27 | 1.84 | 6.1 | 1.17 | 3.56 |
| COc1ccc2sc3c(NCCCN(C)C)nc4ccccc4c3c(=O)c2c1 | 1.68 | 5.99 | 1.53 | 3.27 | 1.57 | 3.67 | 1.78 | 3.46 | 1.34 | 2.71 | 1.68 | 3.18 | 1.55 | 3.04 | 1.22 | 2.53 | 1.81 | 3.49 | 1.82 | 3.27 |
| CC#C[C@]1(O)CC[C@H]2[C@@H]3CCC4=CC(=O)CCC4=C3[C@@H](c3ccc4c(c3)OCO4)C[C@@]21C | 77.2 | 479 | 108 | 410 | 103 | 619 | 110 | 460 | 35.8 | 324 | 112 | 299 | 62.3 | > 1000 | 43.8 | 197 | 119 | 410 | 67.8 | 329 |
| Cc1ccc(N=Nc2c(O)c(C(=O)O)cc3ccccc23)cc1C | – | > 100 | – | > 100 | – | > 100 | – | > 100 | – | > 100 | – | > 100 | – | > 100 | – | > 100 | – | > 100 | – | > 100 |
| CCOC(=O)c1cc(NS(=O)(=O)c2ccccc2)cc(C(=O)OCC)c1 | > 100 | > 100 | > 100 | > 100 | > 100 | > 100 | > 100 | > 100 | > 100 | > 100 | > 100 | > 100 | > 100 | > 100 | > 100 | > 100 | > 100 | > 100 | > 100 | > 100 |
| C=CCC[CH2][Sn]([c]1ccccc1)([c]1ccccc1)[c]1ccccc1 | 0.572 | 5.28 | 1.65 | 3.01 | 1.01 | 4.37 | 1.19 | 2.49 | 1.54 | 2.87 | 1.31 | 2.58 | 0.856 | 2.12 | 1.34 | 2.66 | 1.87 | 3.33 | 1.99 | 3.6 |
| CCCC(=O)OC1C(C(O)CO)OC2OC(C)(C)OC21 (stereo not given) | – | > 100 | – | > 100 | – | < 3.16 | – | > 100 | – | > 100 | – | > 100 | – | > 100 | – | > 100 | – | > 100 | – | > 100 |
| O=[N+]([O-])C1C2C=CC(C2)[C@H]1c1ccco1 (stereo not given in full) | – | > 100 | – | > 100 | – | > 100 | – | > 100 | – | > 100 | – | > 100 | – | > 100 | – | > 100 | – | > 100 | – | > 100 |
| CCCCCCCCCCCC(=O)OCC1OC(n2cc(F)c(=O)[nH]c2=O)C(NC(=O)OCc2ccccc2)C(OC(=O)CCCCCCCCCCC)C1O (stereo not given) | – | > 100 | – | > 100 | – | > 100 | – | > 100 | – | > 100 | – | > 100 | – | > 100 | – | > 100 | – | > 100 | – | > 100 |
| O=C(/C=C/c1ccccc1)c1cc(Br)ccc1O | – | 12.3 | – | 29.9 | – | 33.9 | – | 28.4 | – | 28.8 | – | 25.7 | – | 46.8 | – | 37.4 | – | 27.9 | – | 31.5 |
| CSc1ccc(C2OC(=O)c3ccccc32)c2ccccc12 (stereo not given) | – | > 100 | – | > 100 | – | > 100 | – | > 100 | – | > 100 | – | > 100 | – | > 100 | – | > 100 | – | > 100 | – | > 100 |
| CN1CCC(n2cnc(-c3ccc(F)cc3)c2-c2ccnc(NCCO)n2)CC1 | 23.7 | > 25 | 12.7 | > 25 | > 25 | > 25 | > 17.7 | > 25 | > 23.9 | > 25 | 16.7 | > 25 | 15.8 | > 25 | > 25 | > 25 | > 25 | > 25 | > 19.8 | > 25 |
| O=C(NCCO)Nc1ccc(-c2nc(N3CCOCC3)c3cccn3n2)cc1 | 0.232 | > 100 | 1.01 | > 95.1 | 2.98 | > 100 | 0.0833 | > 100 | 0.218 | 6.14 | 0.579 | > 100 | 1.65 | > 100 | 0.0686 | 1.39 | 0.149 | 4.29 | 0.117 | 2.13 |
| Cn1cc(-c2ccc3occ(-c4cccc(-c5ccncc5)c4)c3n2)cn1 | 0.23 | > 100 | 0.601 | > 100 | 0.923 | > 100 | 0.594 | 12.1 | 1.25 | > 100 | 0.358 | > 100 | 0.435 | > 100 | 0.661 | 4.44 | 2.6 | > 100 | 0.809 | > 100 |
